“And” between values parts separate entries of the source, which are not always exact repeats. Equal values may be shown once.
Target: T1, TbERK8 (Trypanosoma brucei brucei, UniProt Q38B88)
T1 sequence (Q38B88 1-442): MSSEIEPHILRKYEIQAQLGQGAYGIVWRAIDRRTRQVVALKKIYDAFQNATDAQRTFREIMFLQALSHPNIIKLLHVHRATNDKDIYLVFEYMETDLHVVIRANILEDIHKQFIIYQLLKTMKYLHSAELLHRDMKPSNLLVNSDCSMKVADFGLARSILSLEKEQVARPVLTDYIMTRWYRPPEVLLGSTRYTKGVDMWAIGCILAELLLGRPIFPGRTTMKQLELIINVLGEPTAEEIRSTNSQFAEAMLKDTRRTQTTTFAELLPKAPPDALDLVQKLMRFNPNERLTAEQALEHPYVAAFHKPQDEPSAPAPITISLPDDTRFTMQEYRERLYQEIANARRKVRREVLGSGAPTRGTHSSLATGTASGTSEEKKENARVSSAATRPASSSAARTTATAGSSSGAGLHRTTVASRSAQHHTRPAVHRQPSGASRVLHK
Experiment: Luciferase-based kinase inhibition assay (ATP luminescence), GST-tagged TbERK8 with MBP substrate
Format: biochemical
Parameters: raw luminescence, TbERK8: unit of the concentration uncertain
Details: for raw luminescence, TbERK8: replicate wells; for Luminescence Raw (Kinase-Glo): TbERK8
Procedure: Escherichia coli strain Rosetta 2 (DE3) (Cat# 71397, MilliporeSigma, Burlington, MA) was transformed with the plasmid pGEX2T expressing the full-length hERK8 coding region or pGSTAg expressing the full-length TbERK8 coding region. One liter of Terrific Broth media containing 100 μg/ml Ampicillin and 30 μg/ml chloramphenicol in 2 L baffled flasks was inoculated with 25 mL from an overnight culture of Rosetta 2 strains harboring either the pGEX2T-hERK8 or pGSTAg-TbERK8 plasmid. Two baffled flasks were inoculated with each overnight strain and incubated and shaken at 175 RPM in a New Brunswick Innova 44R Incubator Shaker (Fischer Scientific, Pittsburgh, PA) at 37 °C until the cultures reached an O.D.600 of 0.94. Once the cultures in the flask reached the target O.D.600, the flasks were cooled to 4 °C in an ice water bath. The cooled cultures were induced by adding isopropyl β-D-1-thiogalactopyranoside (IPTG) to a final concentration of 0.1 mM and shaken at 16 °C for 16 hours at 175 RPM in a New Brunswick Innova 44R Incubator Shaker (Fischer Scientific, Pittsburgh, PA). On the next day, the cultures were pelleted by centrifugation at 9000 xg in a JLA 10.500 rotor (Beckman Coulter; Brea, CA), and the media was decanted. The pellet was flash-frozen in liquid nitrogen and then thawed on ice. The thawed pellet was resuspended in lysis buffer (25 mM Tris, 75 mM NaCl, 0.5% TritonX-100 and 0.5% Nonidet P-40, 1 mM phenylmethanesulfonyl fluoride, 1 mM benzamidine⋅HCl) and lysed using a microfluidizer M-110P from Microfluidics (Westwood, MA). The crude lysates were clarified by centrifugation at 140,000 xg in a 45Ti rotor (Beckman Coulter, Brea, CA) for 30 min at 4°C. The clarified lysate was loaded by gravity to a 3 mL glutathione agarose resin column (Cat# G-250–10, GOLDBIO, St. Louis, MO) formed in a 1.5 × 20 cm glass chromatography column (Cat# 7371522, Bio-Rad, Hercules, CA). The column was washed with 30 mL of PBS (pH 7.4) containing 1 mM DTT. Elution buffer (50 mM Tris buffer pH 8.0 containing 10 mM reduced glutathione and 1 mM DTT was added to the washed column), and 1 mL fractions were collected by gravity and examined by SDS-PAGE stained by Coomassie dye. Peak fractions pooled from the elution were dialyzed (4x 1:500 dilutions) in kinase buffer (30 mM Tris, pH 7.4, 10 mM MgCl2, 1 mM DTT, 5% glycerol).
We performed kinase assays in buffer K (30 mM Tris pH 7.4, 10 mM MgCl2, 1 mM DTT, 5% glycerol, 50 μM ATP, and 0.1 mg/mL BSA) at 30°C for 30 min in 30 μL reactions. GST-tagged HsERK8 and TbERK8 were tested using myelin basic protein (MBP) (Cat# 13–110, Millipore, Darmstadt, Germany) as the substrate at increasing concentrations to determine the optimal activity for the assay. ATP consumption was determined by adding equal volumes of the kinase assay reagent (Promega, Cat# V5601, Madison, WI) following the manufacturer’s protocol. Luminescence was measured using the microplate reader (SpectraMax L, Molecular Devices, Sunnyvale, CA).
These compounds were screened for kinase inhibition utilizing a luciferase-based assay. Briefly, the kinases were tested using MBP as the substrate at a 14-fold molar excess in 384-well flat-bottom white plates (BRANDTECH Scientific, Cat# 781681, Essex, CT). These compounds were tested at concentrations ranging from […] to 150 nM. The kinases plus MBP substrate reactions were incubated with each inhibitor for 30 minutes at 30°C. Equal volumes of kinase assay mix Promega (Cat# V5601, Madison, WI) were added to the kinase/inhibitor reaction after 30 minutes, following the manufacturer’s protocol. ATP luminescence was measured using a microplate reader (SpectraMax L, Molecular Devices, Sunnyvale, CA). IC50 values were calculated from assays done in triplicate by fitting the data using Prism 8.1.1 (GraphPad).

C[C@]12C=CC(=O)C=C1CC[C@@H]1[C@@H]2[C@@H](O)C[C@@]2(C)[C@H]1CC[C@]2(O)C(=O)CO [Prednisolone]
IC50: > 10 mM
raw luminescence, TbERK8 (0.00015 (unit uncertain) compound, sheet ADP_ATP_glo081724 (3)): 151.546 RLU and 115.356 RLU and 183.213 RLU
raw luminescence, TbERK8 (0.00015 (unit uncertain) compound, sheet Kinase_glo 08142024 (2)): 851.739 RLU and 832.717 RLU and 648.843 RLU
raw luminescence, TbERK8 (0.00015 (unit uncertain) compound, sheet Kinase_glo_080924_IFPS (2)): 2863.49 RLU and 2847.77 RLU and 2549.07 RLU
raw luminescence, TbERK8 (0.00061 (unit uncertain) compound, sheet ADP_ATP_glo081724 (3)): 126.666 RLU and 99.523 RLU and 185.475 RLU
raw luminescence, TbERK8 (0.00061 (unit uncertain) compound, sheet Kinase_glo 08142024 (2)): 699.567 RLU and 777.766 RLU and 826.377 RLU
raw luminescence, TbERK8 (0.00061 (unit uncertain) compound, sheet Kinase_glo_080924_IFPS (2)): 1033.1 RLU and 1001.66 RLU and 918.564 RLU
raw luminescence, TbERK8 (0.00244 (unit uncertain) compound, sheet ADP_ATP_glo081724 (3)): 151.546 RLU and 108.57 RLU and 214.879 RLU
raw luminescence, TbERK8 (0.00244 (unit uncertain) compound, sheet Kinase_glo 08142024 (2)): 716.475 RLU and 665.751 RLU and 646.73 RLU
raw luminescence, TbERK8 (0.00244 (unit uncertain) compound, sheet Kinase_glo_080924_IFPS (2)): 2143.15 RLU and 2092.68 RLU and 2029.79 RLU
raw luminescence, TbERK8 (0.00977 (unit uncertain) compound, sheet ADP_ATP_glo081724 (3)): 255.593 RLU and 147.022 RLU and 271.426 RLU
raw luminescence, TbERK8 (0.00977 (unit uncertain) compound, sheet Kinase_glo 08142024 (2)): 437.494 RLU and 490.331 RLU and 469.196 RLU
raw luminescence, TbERK8 (0.00977 (unit uncertain) compound, sheet Kinase_glo_080924_IFPS (2)): 2030.86 RLU and 2806.27 RLU and 2958.99 RLU
raw luminescence, TbERK8 (0.03906 (unit uncertain) compound, sheet ADP_ATP_glo081724 (3)): 165.118 RLU and 117.618 RLU and 199.046 RLU
raw luminescence, TbERK8 (0.03906 (unit uncertain) compound, sheet Kinase_glo 08142024 (2)): 667.865 RLU and 653.07 RLU and 765.085 RLU
raw luminescence, TbERK8 (0.03906 (unit uncertain) compound, sheet Kinase_glo_080924_IFPS (2)): 2637.83 RLU and 2496.34 RLU and 2622.11 RLU
raw luminescence, TbERK8 (0.15625 (unit uncertain) compound, sheet ADP_ATP_glo081724 (3)): 334.759 RLU and 251.069 RLU and 300.831 RLU
raw luminescence, TbERK8 (0.15625 (unit uncertain) compound, sheet Kinase_glo 08142024 (2)): 1037.73 RLU and 1041.95 RLU and 1113.81 RLU
raw luminescence, TbERK8 (0.15625 (unit uncertain) compound, sheet Kinase_glo_080924_IFPS (2)): 2180.42 RLU and 2133.34 RLU and 2264.78 RLU
raw luminescence, TbERK8 (0.62500 (unit uncertain) compound, sheet ADP_ATP_glo081724 (3)): 495.353 RLU and 366.425 RLU and 545.114 RLU
raw luminescence, TbERK8 (0.62500 (unit uncertain) compound, sheet Kinase_glo 08142024 (2)): 1265.98 RLU and 1276.55 RLU and 1342.07 RLU
raw luminescence, TbERK8 (0.62500 (unit uncertain) compound, sheet Kinase_glo_080924_IFPS (2)): 3642.09 RLU and 3777.07 RLU and 3651.3 RLU
raw luminescence, TbERK8 (2.50000 (unit uncertain) compound, sheet ADP_ATP_glo081724 (3)): 791.659 RLU and 658.208 RLU and 870.825 RLU
raw luminescence, TbERK8 (2.50000 (unit uncertain) compound, sheet Kinase_glo 08142024 (2)): 2855.33 RLU and 2339.64 RLU and 2348.09 RLU
raw luminescence, TbERK8 (2.50000 (unit uncertain) compound, sheet Kinase_glo_080924_IFPS (2)): 13901.1 RLU and 13588.9 RLU and 13357.6 RLU
raw luminescence, TbERK8 (10.00000 (unit uncertain) compound, sheet ADP_ATP_glo081724 (3)): 8500.16 RLU and 8653.97 RLU and 8624.56 RLU
raw luminescence, TbERK8 (10.00000 (unit uncertain) compound, sheet Kinase_glo 08142024 (2)): 38026 RLU and 38805.9 RLU and 42117.7 RLU
raw luminescence, TbERK8 (10.00000 (unit uncertain) compound, sheet Kinase_glo_080924_IFPS (2), signal = ATP left): 19789.8 RLU and 19980.7 RLU and 19481.5 RLU
Luminescence Raw (Kinase-Glo) (inhibitor 0.00976562 mM, sheet Sil_Pred3, read 3): 32992.2 and 33121 and 33174.9
Luminescence Raw (Kinase-Glo) (inhibitor 0.0195312 mM, sheet Sil_Pred3, read 3): 38593.5 and 41076.8 and 40952.6
Luminescence Raw (Kinase-Glo) (inhibitor 0.0390625 mM, sheet Sil_Pred3, read 3): 46486.1 and 45877 and 46038.6
Luminescence Raw (Kinase-Glo) (inhibitor 0.078125 mM, sheet Sil_Pred3, read 3): 44202 and 48636.7 and 49203.6
Luminescence Raw (Kinase-Glo) (inhibitor 0.15625 mM, sheet Sil_Pred3, read 3): 45380.3 and 46230.7 and 46420.5
Luminescence Raw (Kinase-Glo) (inhibitor 0.3125 mM, sheet Sil_Pred3, read 3): 39235.4 and 40486.4 and 39917.2
Luminescence Raw (Kinase-Glo) (inhibitor 0.625 mM, sheet Sil_Pred3, read 3): 39298.7 and 39928.9 and 40873
Luminescence Raw (Kinase-Glo) (inhibitor 0.00976562, sheet Sil_Pred1, read 1): 36007.1 and 35961.3 and 35122.3
Luminescence Raw (Kinase-Glo) (inhibitor 0.00976562, sheet Sil_Pred2, read 2): 32848.9 and 34114.2 and 33997.9
Luminescence Raw (Kinase-Glo) (inhibitor 0.0195312, sheet Sil_Pred1, read 1): 43841.6 and 45072.5 and 44815.8
Luminescence Raw (Kinase-Glo) (inhibitor 0.0195312, sheet Sil_Pred2, read 2): 39947.1 and 42452 and 42749.7
Luminescence Raw (Kinase-Glo) (inhibitor 0.0390625, sheet Sil_Pred1, read 1): 50695.1 and 50667.6 and 49805.8
Luminescence Raw (Kinase-Glo) (inhibitor 0.0390625, sheet Sil_Pred2, read 2): 46810.4 and 47329.1 and 47238.4
Luminescence Raw (Kinase-Glo) (inhibitor 0.078125, sheet Sil_Pred1, read 1): 49017.3 and 54222.7 and 54701.7
Luminescence Raw (Kinase-Glo) (inhibitor 0.078125, sheet Sil_Pred2, read 2): 44868.4 and 49845.5 and 51285.2
Luminescence Raw (Kinase-Glo) (inhibitor 0.15625, sheet Sil_Pred1, read 1): 51194.8 and 52235.4 and 51680.7
Luminescence Raw (Kinase-Glo) (inhibitor 0.15625, sheet Sil_Pred2, read 2): 47366.3 and 47915.2 and 47922.2
Luminescence Raw (Kinase-Glo) (inhibitor 0.3125, sheet Sil_Pred1, read 1): 44343.6 and 45716.6 and 43953.9
Luminescence Raw (Kinase-Glo) (inhibitor 0.3125, sheet Sil_Pred2, read 2): 41235.6 and 41775.2 and 41631
Luminescence Raw (Kinase-Glo) (inhibitor 0.625, sheet Sil_Pred1, read 1): 43960.8 and 44712.6 and 44414.7
Luminescence Raw (Kinase-Glo) (inhibitor 0.625, sheet Sil_Pred2, read 2): 40144.8 and 41517 and 41924

Source: PMC12445744, “Molecular docking to homology models of human and Trypanosoma brucei ERK8 that identified ortholog-specific inhibitors” (PLOS Neglected Tropical Diseases, 2025)
